Reference: ChEMBL document CHEMBL1201862, “PubChem BioAssay data set” (2004)
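Results reflect a 48-hour exposure of cells in 96-well plates to compound at five concentrations. GI50 is the concentration that inhibits growth by half.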 Active and inactive are the calls of the source. Cut-off read from the data, not from the text of the source: active = GI50 up to about 1.1 µM and inactive = higher.

What was measured:
Test in all cases: growth of human tumour cells (NCI), 48 h
786-0 = system: 786-0
SNB-78 = system: SNB-78
SK-MEL-2 = system: SK-MEL-2
HT-29 = system: HT-29
NCI-H522 = system: NCI-H522
ACHN = system: ACHN
U-251 = system: U-251
DMS-114 = system: DMS-114
SK-MEL-5 = system: SK-MEL-5
COLO 205 = system: COLO 205
K562 = system: K562
HCT-116 = system: HCT-116
OVCAR-4 = system: OVCAR-4
UACC-257 = system: UACC-257
SK-OV-3 = system: SK-OV-3
SF-539 = system: SF-539
LXFL 529 = system: LXFL 529
RPMI-8226 = system: RPMI-8226
M14 = system: M14
UACC-62 = system: UACC-62
NCI-H226 = system: NCI-H226
DLD-1 = system: DLD-1
HOP-18 = system: HOP-18
NCI-H23 = system: NCI-H23
SN12C = system: SN12C
NCI-H460 = system: NCI-H460
SW-620 = system: SW-620
KM12 = system: KM12
OVCAR-5 = system: OVCAR-5
KM-20L2 = system: KM-20L2
M19-MEL = system: M19-MEL
SF-295 = system: SF-295
MOLT-4 = system: MOLT-4
HL-60 = system: HL-60
CCRF-CEM = system: CCRF-CEM
CAKI-1 = system: CAKI-1
IGROV-1 = system: IGROV-1
OVCAR-8 = system: OVCAR-8
SK-MEL-28 = system: SK-MEL-28
OVCAR-3 = system: OVCAR-3
HOP-62 = system: HOP-62
LOX IMVI = system: LOX IMVI
DMS-273 = system: DMS-273
HCT-15 = system: HCT-15
TK-10 = system: TK-10
SF-268 = system: SF-268
SNB-75 = system: SNB-75
RXF 393 = system: RXF 393
Malme-3M = system: Malme-3M
UO-31 = system: UO-31
SR = system: SR
A549 = system: A549

COc1ccc(C(C#N)NNC(=O)c2ccccc2O)cc1OC (configuration not stated)
GI50 (786-0): 1240 nM (inactive) | GI50 (SNB-78): 685 nM (active) | GI50 (SK-MEL-2): 667 nM (active) | GI50 (HT-29): 30100 nM (inactive) | GI50 (NCI-H522): 3280 nM (inactive) | GI50 (ACHN): 384 nM (active) | GI50 (U-251): 450 nM (active) | GI50 (DMS-114): 573 nM (active) | GI50 (SK-MEL-5): 8950 nM (inactive) | GI50 (COLO 205): 35600 nM (inactive) | GI50 (K562): 356 nM (active) | GI50 (HCT-116): 401 nM (active) | GI50 (OVCAR-4): 1700 nM (inactive) | GI50 (UACC-257): 3840 nM (inactive) | GI50 (SK-OV-3): 889 nM (active) | GI50 (SF-539): 705 nM (active) | GI50 (LXFL 529): 526 nM (active) | GI50 (RPMI-8226): 4240 nM (inactive) | GI50 (M14): 750 nM (active) | GI50 (UACC-62): 310 nM (active) | GI50 (NCI-H226): 1960 nM (inactive) | GI50 (DLD-1): 900 nM (active) | GI50 (HOP-18): 10000 nM (inactive) | GI50 (NCI-H23): 746 nM (active) | GI50 (SN12C): 767 nM (active) | GI50 (NCI-H460): 478 nM (active) | GI50 (SW-620): 4560 nM (inactive) | GI50 (KM12): 807 nM (active) | GI50 (OVCAR-5): 15100 nM (inactive) | GI50 (KM-20L2): 22000 nM (inactive) | GI50 (M19-MEL): 6920 nM (inactive) | GI50 (SF-295): 1240 nM (inactive) | GI50 (MOLT-4): 3040 nM (inactive) | GI50 (HL-60): 1760 nM (inactive) | GI50 (CCRF-CEM): 1210 nM (inactive) | GI50 (CAKI-1): 394 nM (active) | GI50 (IGROV-1): 547 nM (active) | GI50 (OVCAR-8): 1460 nM (inactive) | GI50 (SK-MEL-28): 28600 nM (inactive) | GI50 (OVCAR-3): 2550 nM (inactive) | GI50 (HOP-62): 13200 nM (inactive) | GI50 (LOX IMVI): 735 nM (active) | GI50 (DMS-273): 364 nM (active) | GI50 (HCT-15): 893 nM | GI50 (TK-10): 14600 nM (inactive) | GI50 (SF-268): 468 nM (active) | GI50 (SNB-75): 331 nM (active) | GI50 (RXF 393): 902 nM (active) | GI50 (Malme-3M): 11700 nM (inactive) | GI50 (UO-31): 379 nM (active) | GI50 (SR): 463 nM (active) | GI50 (A549): 377 nM (active)
